Measured values: patent publication US20130323721A1, “HEPATOCYTES FOR IN VITRO GENOTOXICITY TESTS” (MEDICYTE GMBH, priority 2010, published 2013)
Read-outs that look alike come from different tables or passages of the source.

Experiments:
[1] = tested on: proliferating hepatocytes; assay: Micronucleus formation in proliferating hepatocytes, FACS assay
Experimental: So as to check the suitability of the proliferatable hepatocytes described in the patent with respect to genotoxicity tests, the cells were treated with substances that are considered positive and negative substances for genotoxicity. Genotoxicity was quantified by way of the share of induced micronuclei as compared to the control group using an FACS assay.
The proliferating hepatocytes described in the invention were plated out in a density of 3000 cells/cm^2 on collagen-coated cell culture vessels and treated with the aforementioned substances in various concentrations. Within the scope of regulatory testing according to OECD, testing took place up to 50% cytotoxicity, which was determined for each substance beforehand by way of a MTT viability assay.

[2] = tested on: V79 cells; details: with or without S9 mix; cited from earlier work
[3] = tested on: bacteria (auxotrophic mutants); details: with S9 fraction of hamster liver; cited from earlier work

## O=P1(N(CCCl)CCCl)NCCCO1 (stereo not shown) [CPA, cyclophosphamide]
[1]; various concentrations up to 50% cytotoxicity, no external S9, FIGS. 2-4
  Genotoxicity: induced micronuclei compared to the control group: clearly recognized as being positive
[2]
  Detection of genotoxicity in micronucleus test: only detected in the currently used micronucleus test with V79 cells if the substance was previously converted with a CYP enzyme extract (S9 mix)

## CCOc1ccc(NC(C)=O)cc1 [phenacetin]
[3]
  Ames test result (mutagenicity): only tested positively in the Ames test if an incubation of phenacetin is carried out with the S9 fraction of hamster liver

## COc1cc(/C=C/C(=O)CC(=O)/C=C/c2ccc(O)c(OC)c2)ccc1O [curcumin]
[1]
  Genotoxicity: induced micronuclei compared to the control group: did not induce increased micronuclei formation
